# Data published in patent US10265326B2, “Form C of avibactam sodium” (Sandoz AG, priority 2015, dated 2019).
# “Also recorded” adds a separate entry of the source.
# Tests used:
# [1] = Stress tests: open storage at room temperature over saturated salt solutions at different relative humidities, analysis by PXRD; format: physicochemical; settings: for physical form found by PXRD after stress test: open storage
# Protocol: Powder X-ray diffraction (PXRD) was performed with a PANalytical X'Pert PRO diffractometer equipped with a theta/theta coupled goniometer in transmission geometry, Cu-Kalpha1,2 radiation (wavelength 0.15419 nm) with a focusing mirror and a solid state PIXcel detector. Diffractograms were recorded at a tube voltage of 45 kV and a tube current of 40 mA, applying a stepsize of 0.013° 2-Theta with 40 s per step (255 channels) in the angular range of 2° to 40° 2-Theta at ambient conditions. A typical precision of the 2-Theta values is in the range of ±0.2° 2-Theta. Thus, the diffraction peak of substantially pure form C that appears for example at 6.5° 2-Theta can appear between 6.3 and 6.7° 2-Theta on most X-ray diffractometers under standard conditions.
# Crystalline form C (prepared according to example 1 herein) was open stored at room temperature in desiccators over saturated salt solutions generating different relative humidities.
# [2] = Gravimetric moisture sorption; format: physicochemical; settings: relative humidity 0 to 60%, (25.0±0.1) °C
# Protocol: Moisture sorption isotherms were recorded with an SPSx-1μ moisture sorption analyzer (ProUmid, Ulm). The measurement cycle was started at ambient relative humidity (RH) of 30% and first decreased to 3% RH and then to 0% RH. […] The time per step was set to a minimum of 2 hours and a maximum of 6 hours. If an equilibrium condition with a constant mass of ±0.01% within 1 hour was reached before the maximum time for all examined samples the sequential humidity step was applied before the maximum time of 6 hours. If no equilibrium was achieved the consecutive humidity step was applied after the maximum time of 6 hours. The temperature was 25±0.1° C.
smiles,measurement,setting,value
"NC(=O)[C@@H]1CC[C@@H]2CN1C(=O)N2OS(=O)(=O)O.[Na] [form C, sodium salt of (1R,2S,5R)-7-oxo-6-sulfooxy-1,6-diazabicyclo[3.2.1]octane-2-carboxamide]",relative humidity at or below which no transformation into any other physical form occurs,[1],≤ 55%
same,physical form found by PXRD after stress test,"[1]; 45% relative humidity (K2CO3), 9 days",substantially pure form C after 9 days and after
same,physical form found by PXRD after stress test,"[1]; 45% relative humidity (K2CO3), 277 days",remains stable; also recorded: substantially pure form C after 9 days and after
same,physical form found by PXRD after stress test,"[1]; 55% relative humidity (Ca(NO3)2 x 4H2O), 9 days",remains stable; also recorded: substantially pure form C after 9 days
same,physical form found by PXRD after stress test,"[1]; 63% relative humidity (NaBr), 3 days",traces of form A detectable after 3 days
same,physical form found by PXRD after stress test,"[1]; 75% relative humidity (NaCl), 3 days",mainly form A with traces of form C after
same,physical form found by PXRD after stress test,"[1]; 86% relative humidity (KCl), one day",form A after one day
same,"weight change, based on the weight of crystalline form C",[2],not more than 0.5%
